Data: patent publication US20230303483A1, “USE OF STROBILURIN TYPE COMPOUNDS FOR COMBATING PHYTOPATHOGENIC FUNGI CONTAINING AN AMINO ACID SUBSTITUTION F129L IN THE MITOCHONDRIAL CYTOCHROME B PROTEIN CONFERRING RESISTANCE TO QO […]” (BASF SE, priority 2020, published 2023)

Experiments:
[1] = test system: Phakopsora pachyrhizi (strain containing the amino acid substitution F129L in the mitochondrial cytochrome b protein); assay: Use example 2: protective control of soybean rust on soybeans (PHAKPA P6), inoculation six days after spraying; type: in vivo; settings: % diseased leaf area on soybean, 16 ppm spray, inoculation six days after treatment, untreated controls usually >85 %
Procedure: (§1) The compound was dissolved in a mixture of acetone and/or dimethylsulfoxide and the wetting agent/emulsifier Wettol, which is based on ethoxylated alkylphenoles, in a ratio (volume) solvent-emulsifier of 99 to 1 to give a total volume of 5 ml. Subsequently, water was added to total volume of 100 ml. This stock solution was then diluted with the described solvent-emulsifier-water mixture to the final concentration given in the table below.
Use example 2. Protective control of soybean rust on soybeans caused by Phakopsora pachyrhizi (PHAKPA P6)
(§2) Leaves of potted soybean seedlings were sprayed to run-off with the previously described spray solution, containing the concentration of active ingredient as described below. The plants were allowed to air-dry. The trial plants were cultivated for six days in a greenhouse chamber at 23-27° C. and a relative humidity between 60 and 80 %. Then the plants were inoculated with spores of Phakopsora pachyrhizi. The strain used contains the amino acid substitution F129L in the mitochondrial cytochrome b protein conferring resistance to Qo inhibitors. To ensure the success the artificial inoculation, the plants were transferred to a humid chamber with a relative humidity of about 95 % and 23 to 27° C. for 24 hr. The trial plants were cultivated for up to 14 days in a greenhouse chamber at 23 to 27° C. and a relative humidity between 60 and 80 %. The extent of fungal attack on the leaves was visually assessed as % diseased leaf area, the disease level of untreated controls was usually higher than 85 %.
(§3) All test results below are given for the control of phytopathogenic fungi containing the amino acid substitution F129L in the mitochondrial cytochrome b protein conferring resistance to Qo inhibitors.

[2] = test system: Phakopsora pachyrhizi (strain containing the amino acid substitution F129L in the mitochondrial cytochrome b protein); assay: Use example 1: protective control of soybean rust on soybeans (PHAKPA P2), inoculation 2 days after spraying; type: in vivo; settings: % diseased leaf area on soybean, 16 ppm spray, inoculation 2 days after treatment, untreated controls usually >85 %
Procedure: as §1
Use example 1. Protective control of soybean rust on soybeans caused by Phakopsora pachyrhizi (PHAKPA P2)
as §2, with “active ingredient or their mixture as described” for “active ingredient as described”, “cultivated for 2 days in” for “cultivated for six days in”, “% and 20 to 24°” for “% and 23 to 27°”, “20 to 24° C. for” for “23 to 27° C. for”
as §3

| SMILES | PHAKPA Disease level (%) P6 at 16 ppm [1] [%] | PHAKPA Disease level (%) P2 at 16 ppm [2] [%] |
| --- | --- | --- |
| CNC(=O)/C(=N/OC)c1ccccc1CO/N=C(\C)C#Cc1ccc(Cl)cc1-c1ccc(F)cc1 [Example 115] | 1 | 2 |
| CO/N=C(/C(=O)OC)c1cccc(C)c1CO/N=C(\C)C#Cc1ccc(C(F)(F)F)cc1 [Example 64] | 60 | 43 |
| CNC(=O)/C(=N/OC)c1cccc(C)c1CO/N=C(\C)C#Cc1ccccc1C(F)(F)F [Example 68] | 1 | 0 |
| CO/N=C(/C(=O)OC)c1cccc(C)c1CO/N=C(\C)C#Cc1cccc(C(F)(F)F)c1 [Example 39] | 1 | 2 |
| CO/N=C(/C(=O)OC)c1cccc(C)c1CO/N=C(\C)C#Cc1ccccc1C(F)(F)F [Example 66] | 30 | 17 |
| CNC(=O)/C(=N/OC)c1ccccc1CO/N=C(\C)C#Cc1ccc(F)cc1 [Example 8] | 0.7 | 0 |
| CNC(=O)/C(=N/OC)c1cccc(C)c1CO/N=C(\C)C#Cc1ccccc1Br [Example 47] | 0 | 0 |
| CNC(=O)/C(=N/OC)c1ccccc1CO/N=C(\C)C#Cc1ccc(OCC(F)(F)F)cc1 [Example 104] | 32 | 53 |
| CNC(=O)/C(=N/OC)c1ccccc1CO/N=C(\C)C#Cc1ccc(Cl)cc1C(F)(F)F [Example 99] | 0 | 0 |
| CO/N=C(/C(=O)OC)c1cccc(C)c1CO/N=C(\C)C#Cc1ccc(F)c(C(=O)OC)c1 [Example 123] | 37 | 43 |
| COC/C(C#Cc1ccc(Cl)cc1)=N\OCc1ccccc1/C(=N\OC)C(=O)OC [Example 113] | 77 | 87 |
| CO/N=C(/C(=O)OC)c1ccccc1CO/N=C(\C)C#Cc1ccc(Cl)cc1C(F)(F)F [Example 94] | 47 | 53 |
| CO/N=C(/C(=O)OC)c1cccc(C)c1CO/N=C(\C)C#Cc1ccccc1Br [Example 45] | 22 | 25 |
| CO/N=C(/C(=O)OC)c1ccccc1CO/N=C(\C)C#Cc1ccc(OCC(F)(F)F)cc1 [Example 98] | 93 | 73 |
| CNC(=O)/C(=N/OC)c1ccccc1CO/N=C(\C)C#Cc1ccccc1F [Example 62] | 2 | 2 |
| CO/N=C(/C(=O)OC)c1ccccc1CO/N=C(\C)C#Cc1ccc(Br)cc1 [Example 54] | 25 | 22 |
| CNC(=O)/C(=N/OC)c1ccccc1CO/N=C(\C)C#Cc1c(C2CC2)cccc1C(F)(F)F [Example 119] | 77 | 77 |
| CO/N=C(/C(=O)OC)c1ccccc1CO/N=C(\C)C#Cc1cccc(Br)c1 [Example 6] | 43 | 25 |
| CO/N=C(/C(=O)OC)c1ccccc1CO/N=C(\C)C#Cc1ccc(Cl)cc1 [Example 3] | 70 | 70 |
| CO/N=C(/C(=O)OC)c1ccccc1CO/N=C(\C)C#Cc1ccc(Cl)cc1-c1ccc(F)cc1 [Example 118] | 4 | 3 |
| CNC(=O)/C(=N/OC)c1ccccc1CO/N=C(\C)C#Cc1ccc(OC(F)(F)F)cc1C1CC1 [Example 120] | 22 | 15 |
| CNC(=O)/C(=N/OC)c1cccc(C)c1CO/N=C(\C)C#Cc1ccc(F)cc1 [Example 33] | 0 | 0 |
| CNC(=O)/C(=N/OC)c1ccccc1CO/N=C(\C)C#Cc1ccc(C2CC2)cc1 [Example 92] | 57 | 60 |
| CO/N=C(/C(=O)OC)c1ccccc1CO/N=C(\C)C#Cc1ccccc1OC(F)(F)F [Example 10] | 83 | 70 |
| CO/N=C(/C(=O)OC)c1ccccc1CO/N=C(\C)C#Cc1ccccc1 [Example 1, Methyl (2E)-2-methoxyimino-2-[2-[[(E)-(1-methyl-3-phenyl-prop-2-ynylidene)amino]-oxymethyl]phenyl]acetate] | 58 | 38 |
| CO/N=C(/C(=O)OC)c1ccccc1CO/N=C(\C)C#Cc1ccc(Cl)cc1C1CC1 [Example 91] | 43 | 53 |
